Laboratory results from patent publication US20020137929A1, “1 - (3-heterocyclylphenyl) isothiourea, -isourea, -guanidine and -amidine herbicidal agents” (Intellectual Property Department, BASF Aktiengesellschaft, priority 1998, published 2002).

Assays:
MOOVA (Monochoria) = assay: Preemergence weed control under flooded paddy conditions; format: in vivo, Monochoria vaginalis; details: rated 3-4 weeks after treatment
Procedure, shortened: (§1)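 Ratings on a 0-9 visual scale cover stand, vigor, malformation, size, chlorosis and overall appearance relative to a control, taken three to four weeks post-treatment. Application was into flood water over freshly sown silt loam at roughly 0.0313 to 0.500 kg/ha.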

CASOB (Sicklepod) = assay: Postemergence herbicidal evaluation; format: in vivo, Cassia obtusifolia; details: postemergence
Procedure, shortened: (§2)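 Young plants, roughly two weeks from seeding, receive the active ingredient as a sprayed dispersion (acetone/water 50/50, 0.5% TWEEN 20) at 40 psi. Doses span about 0.0156 to 0.500 kg/ha. A visual score from 0 to 9 compares treated with control plants four to five weeks on.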

[1] = tested on: SAGPY (Arrowhead (Pygmaea)); assay: Postemergence weed control under flooded paddy conditions; format: in vivo, Sagittaria pygmaea; details: postemergence weeds, 3-4 weeks after treatment
Procedure, shortened: (§3)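 Herbicidal effect is judged by eye on a 0–9 scale versus control, 3–4 weeks after dosing. Dosing is into flood water kept 1.5–3 cm over the soil, at about 0.0313–0.500 kg/ha in aqueous/acetone 50/50 v/v, on 3–5 cm weeds and 1.5–2.5-leaf rice seedlings.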

[2] = tested on: GLXMAW (Soybean, Williams); assay: Postemergence herbicidal evaluation; format: in vivo, Glycine max, (L.) Merr. cv Williams; details: postemergence
Procedure, shortened: as §2

GALAP (Galium) [3] = assay: Preemergence herbicidal evaluation; format: in vivo, Galium aparine; details: rated 4-5 weeks after treatment
Procedure, shortened: (§4)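 Each species is sown separately in potting soil over roughly an inch of soil before any emergence. The soil surface then receives an aqueous acetone spray delivering about 0.0156 to 0.500 kg/ha of compound. After four to five weeks, injury is scored from 0 to 9 relative to a control.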

[4] = tested on: ECHORC (Watergrass (Calif.)); assay: Postemergence weed control under flooded paddy conditions; format: in vivo, Echinochloa oryzoides; details: postemergence weeds, 3-4 weeks after treatment
Procedure, shortened: as §3

SETVI (Foxtail, Green) = assay: Preemergence herbicidal evaluation; format: in vivo, Setaria viridis; details: rated 4-5 weeks after treatment
Procedure, shortened: as §4

CYPSE (Flatsedge) = assay: Preemergence weed control under flooded paddy conditions; format: in vivo, Cyperus serotinus; details: rated 3-4 weeks after treatment
Procedure, shortened: as §1

[5] = tested on: SAGPY (Arrowhead (Pygmaea)); assay: as above; format: in vivo, Sagittaria pygmaea; details: rated 3-4 weeks after treatment
Procedure, shortened: as §1

[6] = tested on: ECHORC (Watergrass (Calif.)); assay: as above; format: in vivo, Echinochloa oryzoides; details: rated 3-4 weeks after treatment
Procedure, shortened: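 First, seeds or propagules go into the top 0.5 cm of silt loam; next, water is held 1.5 to 3 cm over the soil; then compound (50/50 acetone/water) is pipetted into it at about 0.0313 to 0.500 kg/ha; finally plants are rated visually 0-9 after three to four weeks.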

ORYSAT (Rice, Tebonnet) = assay: Preemergence herbicidal evaluation; format: in vivo, Oryza sativa, (L.) Tebonnet; details: rated 4-5 weeks after treatment
Procedure, shortened: as §4

GALAP (Galium) [7] = assay: Postemergence herbicidal evaluation; format: in vivo, Galium aparine; details: postemergence
Procedure, shortened: as §2

AMBEL (Ragweed, Common) = assay: Postemergence herbicidal evaluation; format: in vivo, Ambrosia artemisifolia; details: postemergence
Procedure, shortened: as §2

[8] = tested on: TRZAWR (Wheat, Winter, cv Riband); assay: Postemergence herbicidal evaluation; format: in vivo, Triticum aestivum; details: postemergence
Procedure, shortened: as §2

CCOC(=O)CN1C(=O)C(=C2CCCC2)SC1=Nc1cc(-n2c(=O)cc(C(F)(F)F)n(C)c2=O)c(F)cc1Cl [Compound 18, Ethyl 2-{{2-chloro-5-[3,6-dihydro-3-methyl-2,6-dioxo-4-(trifluoromethyl)-1(2H)-pyrimidinyl]-4-fluorophenyl}imino}-5-cyclopentylidene-4-oxo-3-thiazolidineacetate]
Herbicidal rating MOOVA (MOOVA (Monochoria); 0.1160 kg/ha): 9.0
Herbicidal rating MOOVA (MOOVA (Monochoria); 0.2310 kg/ha): 9.0
Herbicidal rating MOOVA (MOOVA (Monochoria); 0.4630 kg/ha): 9.0
CASOB herbicidal rating (CASOB (Sicklepod); rate 0.0158 kg/ha): 0.0
CASOB herbicidal rating (CASOB (Sicklepod); rate 0.0315 kg/ha): 1.0
CASOB herbicidal rating (CASOB (Sicklepod); rate 0.0630 kg/ha): 1.0
Herbicidal rating SAGPY ([1]; rate 0.1160 kg/ha): 0.0
Herbicidal rating SAGPY ([1]; rate 0.2310 kg/ha): 0.0
Herbicidal rating SAGPY ([1]; rate 0.4630 kg/ha): 6.0
GLXMAW herbicidal rating ([2]; rate 0.0158 kg/ha): 3.5
GLXMAW herbicidal rating ([2]; rate 0.0315 kg/ha): 3.5
GLXMAW herbicidal rating ([2]; rate 0.0630 kg/ha): 3.5
GALAP preemergence herbicidal rating (GALAP (Galium) [3]; rate 0.1250 kg/ha): 0.0
GALAP preemergence herbicidal rating (GALAP (Galium) [3]; rate 0.2500 kg/ha): 9.0
Herbicidal rating ECHORC ([4]; rate 0.1160 kg/ha): 7.0
Herbicidal rating ECHORC ([4]; rate 0.2310 kg/ha): 7.0
Herbicidal rating ECHORC ([4]; rate 0.4630 kg/ha): 7.0
SETVI preemergence herbicidal rating (SETVI (Foxtail, Green); rate 0.1250 kg/ha): 0.0
SETVI preemergence herbicidal rating (SETVI (Foxtail, Green); rate 0.2500 kg/ha): 2.0
Herbicidal rating CYPSE (CYPSE (Flatsedge); 0.1160 kg/ha): 0.0
Herbicidal rating CYPSE (CYPSE (Flatsedge); 0.2310 kg/ha): 0.0
Herbicidal rating CYPSE (CYPSE (Flatsedge); 0.4630 kg/ha): 4.0
Herbicidal rating SAGPY ([5]; 0.1160 kg/ha): 0.0
Herbicidal rating SAGPY ([5]; 0.2310 kg/ha): 0.0
Herbicidal rating SAGPY ([5]; 0.4630 kg/ha): 6.0
Herbicidal rating ECHORC ([6]; 0.1160 kg/ha): 7.0
Herbicidal rating ECHORC ([6]; 0.2310 kg/ha): 7.0
Herbicidal rating ECHORC ([6]; 0.4630 kg/ha): 7.0
ORYSAT preemergence herbicidal rating (ORYSAT (Rice, Tebonnet); rate 0.1250 kg/ha): 0.0
ORYSAT preemergence herbicidal rating (ORYSAT (Rice, Tebonnet); rate 0.2500 kg/ha): 0.0
GALAP herbicidal rating (GALAP (Galium) [7]; rate 0.0158 kg/ha): 2.0
GALAP herbicidal rating (GALAP (Galium) [7]; rate 0.0315 kg/ha): 5.0
GALAP herbicidal rating (GALAP (Galium) [7]; rate 0.0630 kg/ha): 6.0
AMBEL herbicidal rating (AMBEL (Ragweed, Common); rate 0.0158 kg/ha): 4.0
AMBEL herbicidal rating (AMBEL (Ragweed, Common); rate 0.0315 kg/ha): 9.0
AMBEL herbicidal rating (AMBEL (Ragweed, Common); rate 0.0630 kg/ha): 7.0
TRZAWR herbicidal rating ([8]; rate 0.0158 kg/ha): 2.5
TRZAWR herbicidal rating ([8]; rate 0.0315 kg/ha): 3.0
TRZAWR herbicidal rating ([8]; rate 0.0630 kg/ha): 3.0

CCOC(=O)CN1C(=O)C(=C(C)C)S/C1=N/c1cc(-n2c(=O)cc(C(F)(F)F)n(C)c2=O)c(F)cc1Cl [Compound 20, Ethyl 2-{{2-chloro-5-[3,6-dihydro-3-methyl-2,6-dioxo-4-(trifluoromethyl)-1(2H)-pyrimidinyl]-4-fluorophenyl}imino}-5-isopropylidene-4-oxo-3-thiazolidineacetate]
Herbicidal rating MOOVA (MOOVA (Monochoria); 0.1160 kg/ha): 9.0
Herbicidal rating MOOVA (MOOVA (Monochoria); 0.2310 kg/ha): 9.0
Herbicidal rating MOOVA (MOOVA (Monochoria); 0.4630 kg/ha): 9.0
CASOB herbicidal rating (CASOB (Sicklepod); rate 0.0158 kg/ha): 0.0
CASOB herbicidal rating (CASOB (Sicklepod); rate 0.0315 kg/ha): 0.0
CASOB herbicidal rating (CASOB (Sicklepod); rate 0.0630 kg/ha): 2.0
Herbicidal rating SAGPY ([1]; rate 0.1160 kg/ha): 0.0
Herbicidal rating SAGPY ([1]; rate 0.2310 kg/ha): 0.0
Herbicidal rating SAGPY ([1]; rate 0.4630 kg/ha): 3.0
GLXMAW herbicidal rating ([2]; rate 0.0158 kg/ha): 3.5
GLXMAW herbicidal rating ([2]; rate 0.0315 kg/ha): 4.0
GLXMAW herbicidal rating ([2]; rate 0.0630 kg/ha): 5.5
GALAP preemergence herbicidal rating (GALAP (Galium) [3]; rate 0.0625 kg/ha): 0.0
GALAP preemergence herbicidal rating (GALAP (Galium) [3]; rate 0.1250 kg/ha): 0.0
GALAP preemergence herbicidal rating (GALAP (Galium) [3]; rate 0.2500 kg/ha): 0.0
Herbicidal rating ECHORC ([4]; rate 0.1160 kg/ha): 7.0
Herbicidal rating ECHORC ([4]; rate 0.2310 kg/ha): 7.0
Herbicidal rating ECHORC ([4]; rate 0.4630 kg/ha): 7.0
SETVI preemergence herbicidal rating (SETVI (Foxtail, Green); rate 0.0625 kg/ha): 0.0
SETVI preemergence herbicidal rating (SETVI (Foxtail, Green); rate 0.1250 kg/ha): 0.0
SETVI preemergence herbicidal rating (SETVI (Foxtail, Green); rate 0.2500 kg/ha): 7.0
Herbicidal rating CYPSE (CYPSE (Flatsedge); 0.1160 kg/ha): 5.0
Herbicidal rating CYPSE (CYPSE (Flatsedge); 0.2310 kg/ha): 5.0
Herbicidal rating CYPSE (CYPSE (Flatsedge); 0.4630 kg/ha): 5.0
Herbicidal rating SAGPY ([5]; 0.1160 kg/ha): 0.0
Herbicidal rating SAGPY ([5]; 0.2310 kg/ha): 0.0
Herbicidal rating SAGPY ([5]; 0.4630 kg/ha): 3.0
Herbicidal rating ECHORC ([6]; 0.1160 kg/ha): 7.0
Herbicidal rating ECHORC ([6]; 0.2310 kg/ha): 7.0
Herbicidal rating ECHORC ([6]; 0.4630 kg/ha): 7.0
ORYSAT preemergence herbicidal rating (ORYSAT (Rice, Tebonnet); rate 0.0625 kg/ha): 0.0
ORYSAT preemergence herbicidal rating (ORYSAT (Rice, Tebonnet); rate 0.1250 kg/ha): 0.0
ORYSAT preemergence herbicidal rating (ORYSAT (Rice, Tebonnet); rate 0.2500 kg/ha): 0.0
GALAP herbicidal rating (GALAP (Galium) [7]; rate 0.0158 kg/ha): 1.0
GALAP herbicidal rating (GALAP (Galium) [7]; rate 0.0315 kg/ha): 2.0
GALAP herbicidal rating (GALAP (Galium) [7]; rate 0.0630 kg/ha): 6.0
AMBEL herbicidal rating (AMBEL (Ragweed, Common); rate 0.0158 kg/ha): 4.0
AMBEL herbicidal rating (AMBEL (Ragweed, Common); rate 0.0315 kg/ha): 5.0
AMBEL herbicidal rating (AMBEL (Ragweed, Common); rate 0.0630 kg/ha): 6.0
TRZAWR herbicidal rating ([8]; rate 0.0158 kg/ha): 3.5
TRZAWR herbicidal rating ([8]; rate 0.0315 kg/ha): 4.0
TRZAWR herbicidal rating ([8]; rate 0.0630 kg/ha): 4.0
